Article PMC6911004, “Fragment-based screening identifies molecules targeting the substrate-binding ankyrin repeat domains of tankyrase” (Scientific Reports, 2019)

Key:
Format in all cases: binding
TNKS2 ARC4 = molecular target: T1, TNKS2 ARC4 (Homo sapiens, UniProt Q9H2K2); assay: Fluorescence polarisation (FP) competition assay with Cy5-labelled TBM peptide probe; details: 5 nM Cy5-RSPPDGQS probe, 5 µM TNKS2 ARC4
T1 construct: The cell was filled with TNKS2 ARC4 (488–649); His6-GST; made in house; host or cells: E. coli
T1 sequence (Q9H2K2 488-649): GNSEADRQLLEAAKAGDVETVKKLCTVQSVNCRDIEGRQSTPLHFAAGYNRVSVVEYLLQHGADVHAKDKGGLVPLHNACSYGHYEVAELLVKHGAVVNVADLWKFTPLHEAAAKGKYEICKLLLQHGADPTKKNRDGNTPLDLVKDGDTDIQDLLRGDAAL
Excerpt: Given the anticipated impairment of cell permeability by the N-terminal TBM arginine, we investigated whether the guanidine group could be substituted. To prioritise synthesis efforts, we followed an in-silico docking approach, exploring the importance of the positive charge and hydrogen bonding interactions, linker lengths/flexibility and side chain geometry (see Supplementary Materials and Methods for details). From commercially available side chain alternatives, we identified five potential candidates for R replacements: 1H-imidazole-5-pentanoic acid, 1H-imidazole-1-pentanoic acid, 7-aminoheptanoic acid, D-arginine and L-citrulline (Supplementary Fig. 1). We next synthesised 3BP2 TBM octapeptides, incorporating the five arginine substituents at position 1, followed by fluorescence polarisation (FP) assays to assess competition of the peptides with a Cy5-labelled TBM peptide probe (Supplementary Fig. 1). We used a 16-mer TBM peptide (LPHLQRSPPDGQSFRSW, W introduced to measure A280) derived from the model substrate 3BP2, a signalling adapter protein[4], as a positive control for a competitor, and a corresponding non-binding TBM peptide bearing a glycine-to-arginine substitution at position 6[4] as a negative control. […]
Fluorescence polarisation assay
Unlabelled arginine substituent peptides were titrated up to 1 mM in the presence of 5 nM of a labelled peptide probe (Cy5-RSPPDGQS, JPT Peptide Technologies) and 5 µM TNKS2 ARC4. 3BP2 16-mer peptide was used as a positive control, and the same peptide with the glycine at position 6 mutated to arginine (G6R) was used as a negative control. Plus F ProxiPlates (PerkinElmer) were used with a 2103 Envision Multilabel plate reader (PerkinElmer), fitted with 620 nm (excitation) and 688 nm (emission) filters. Filter bandwidths were 10 nm. A Nanodrop 2000 was used for measuring protein and probe concentrations by UV absorption. TNKS2 ARC4 protein was thawed from -80 ° C, and centrifuged at 13,000 […]
Two independent experiments were performed in technical duplicate. A 2´ stock solution containing TNKS2 ARC4 protein (10 µM) and fluorescently tagged probe (10 nM) in assay buffer (25 mM HEPES-NaOH pH 7.5, 100 mM NaCl, 1 mM TCEP, 0.01% CHAPS) was prepared. A 2-fold dilution series of untagged peptide in assay buffer was made (0 – 2 mM).
Protein and peptide stock solutions were mixed 1:1. Blank samples contained assay buffer only. The plate was sealed, centrifuged for 1 min at 1000 ´ g, and then incubated in the dark for 30 min before reading. Readings were taken with 50 flashes per well, and measured in millipolarisation (mP) units. Data were exported to Microsoft Excel, and analysed in GraphPad Prism 6.0. The means of technical duplicate values were calculated for both experiments, and FP values were plotted against unlabelled peptide concentration. Curves were normalised using the overall mean maximum and minimum FP values of the control 3BP2 TBM peptide. Curves were fitted using a non-linear regression, log(inhibitor) vs. response – variable slope (four parameters) model.
Multiple sequence alignments and amino acid identity mapping
Sequences of tankyrase ARCs were aligned using ClustalX (version 2.0) 4. […]
Supplementary Figure 1. Binding of TBM peptides containing arginine substituents to TNKS2 ARC4, measured in a fluorescence polarisation (FP) competition assay. Data points are means of technical duplicates from two independent experiments. […]

TNKS2 ARC1 (20–178) = molecular target: T2, TNKS2 ARC1 (20–178) (Homo sapiens, UniProt Q9H2K2); assay: WaterLOGSY NMR assay
T2 construct: TNKS2 ARC1 (20–178); His6-GST; made in house; host or cells: E. coli
Description: (§1) Fragments were dispensed in duplicate into a 384-well plate (250 nL, 100 mM stock in DMSO). Wells were backfilled with DMSO (2.25 μL). Tankyrase ARC protein (47.5 μL in 25 mM HEPES-NaOH pH7.5, 100 mM NaCl, 2 mM TCEP, 10% D2O; 20 μM final protein concentration in the assay) was added to the samples containing protein; buffer only (47.5 μL) was added to the compound-only samples. Solutions were transferred to 1.7 mm NMR tubes using a Gilson liquid handling system. ^1H NMR spectra were recorded, with the DMSO signal dampened. The bulk water signal at 4.7 ppm was selectively inverted. Data were processed using Bruker Topspin 3.14[66].

TNKS ARC5 (799–958) = molecular target: T3, TNKS ARC5 (799–958) (Homo sapiens, UniProt O95271); assay: WaterLOGSY NMR assay
T3 construct: TNKS ARC5 (799–958); His6-GST; made in house; host or cells: E. coli
Description: as §1

TNKS ARC2–3 (331–645) = molecular target: T4, TNKS ARC2–3 (331–645) (Homo sapiens, UniProt O95271); assay: WaterLOGSY NMR assay
T4 construct: TNKS ARC2–3 (331–645); His6-GST; made in house; host or cells: E. coli
Description: as §1

TNKS2 ARC2–3 (173–487) = molecular target: T5, TNKS2 ARC2–3 (173–487) (Homo sapiens, UniProt Q9H2K2); assay: WaterLOGSY NMR assay
T5 construct: TNKS2 ARC2–3 (173–487); His6-GST; made in house; host or cells: E. coli
Description: as §1

TNKS ARC1 (178–336) = molecular target: T6, TNKS ARC1 (178–336) (Homo sapiens, UniProt O95271); assay: WaterLOGSY NMR assay
T6 construct: TNKS ARC1 (178–336); His6-GST; made in house; host or cells: E. coli
Description: as §1

TNKS ARC4 (646–807) = molecular target: T7, TNKS ARC4 (646–807) (Homo sapiens, UniProt O95271); assay: WaterLOGSY NMR assay
T7 construct: TNKS ARC4 (646–807); His6-GST; made in house; host or cells: E. coli
Description: as §1

T3 sequence (O95271 799-958): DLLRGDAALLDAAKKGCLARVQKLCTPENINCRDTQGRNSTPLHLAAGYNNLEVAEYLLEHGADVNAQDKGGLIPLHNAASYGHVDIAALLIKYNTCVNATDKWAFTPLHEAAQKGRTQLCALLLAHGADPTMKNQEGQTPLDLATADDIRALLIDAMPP
T2 sequence (Q9H2K2 20-178): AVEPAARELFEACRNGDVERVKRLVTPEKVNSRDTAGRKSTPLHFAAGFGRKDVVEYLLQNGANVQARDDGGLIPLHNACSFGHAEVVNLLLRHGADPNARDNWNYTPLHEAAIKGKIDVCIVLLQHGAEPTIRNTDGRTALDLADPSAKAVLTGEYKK
T5 sequence (Q9H2K2 173-487): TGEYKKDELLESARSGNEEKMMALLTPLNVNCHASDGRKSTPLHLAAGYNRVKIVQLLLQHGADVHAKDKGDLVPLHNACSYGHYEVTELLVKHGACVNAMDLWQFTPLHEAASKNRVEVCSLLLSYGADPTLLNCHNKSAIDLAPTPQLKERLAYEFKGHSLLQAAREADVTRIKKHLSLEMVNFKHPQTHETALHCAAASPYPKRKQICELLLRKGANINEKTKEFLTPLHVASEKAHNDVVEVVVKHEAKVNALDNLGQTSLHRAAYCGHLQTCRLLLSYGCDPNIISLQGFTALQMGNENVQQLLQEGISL
T4 sequence (O95271 331-645): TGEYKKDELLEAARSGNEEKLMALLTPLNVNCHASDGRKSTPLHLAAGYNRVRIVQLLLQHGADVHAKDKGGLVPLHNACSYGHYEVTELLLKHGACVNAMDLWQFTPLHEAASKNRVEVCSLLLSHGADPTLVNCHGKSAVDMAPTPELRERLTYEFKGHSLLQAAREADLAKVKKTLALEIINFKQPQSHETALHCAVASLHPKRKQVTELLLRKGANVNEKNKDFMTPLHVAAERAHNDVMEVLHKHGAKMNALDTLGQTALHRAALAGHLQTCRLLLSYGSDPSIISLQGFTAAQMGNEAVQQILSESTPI
T6 sequence (O95271 178-336): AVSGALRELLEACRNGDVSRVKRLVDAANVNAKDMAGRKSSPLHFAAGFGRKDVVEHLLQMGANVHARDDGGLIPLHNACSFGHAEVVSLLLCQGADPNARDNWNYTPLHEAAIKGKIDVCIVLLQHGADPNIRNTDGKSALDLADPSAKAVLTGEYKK
T7 sequence (O95271 646-807): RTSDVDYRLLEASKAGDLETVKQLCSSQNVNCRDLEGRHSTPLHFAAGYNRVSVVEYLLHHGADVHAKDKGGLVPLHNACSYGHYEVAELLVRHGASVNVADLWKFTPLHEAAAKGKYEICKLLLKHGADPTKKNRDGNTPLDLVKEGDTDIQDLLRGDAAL

For “LPHLQRSPPDGQSFRSW [3BP2 16-mer peptide, 16-mer TBM peptide derived from 3BP2, W added for A280, N-terminus acetylated, C-terminus amide-capped; positive control, reference compound]”, the IC50 (TNKS2 ARC4) was 22 µM.

O=C(NCc1ccco1)c1ccc2nccnc2c1 [compound 9] was tested, and the waterLOGSY (TNKS2 ARC1 (20–178)) was “no NOE”, the waterLOGSY (TNKS ARC5 (799–958)) was “negative NOE signal” and the waterLOGSY (TNKS ARC2–3 (331–645)) was “negative NOE signal”. The waterLOGSY (TNKS2 ARC2–3 (173–487)) was “negative NOE signal”, the waterLOGSY (TNKS ARC1 (178–336)) was “negative NOE signal” and the waterLOGSY (TNKS ARC4 (646–807)) was “negative NOE signal”.
